Target: T1, androgen receptor (AR) (Homo sapiens, UniProt P10275, T878A)
T1 construct: they express endogenous androgen receptor (AR) and secrete prostate-specific antigen (PSA); endogenous in cells; host or cells: LNCaP
T1 sequence (P10275 1-920 T878A): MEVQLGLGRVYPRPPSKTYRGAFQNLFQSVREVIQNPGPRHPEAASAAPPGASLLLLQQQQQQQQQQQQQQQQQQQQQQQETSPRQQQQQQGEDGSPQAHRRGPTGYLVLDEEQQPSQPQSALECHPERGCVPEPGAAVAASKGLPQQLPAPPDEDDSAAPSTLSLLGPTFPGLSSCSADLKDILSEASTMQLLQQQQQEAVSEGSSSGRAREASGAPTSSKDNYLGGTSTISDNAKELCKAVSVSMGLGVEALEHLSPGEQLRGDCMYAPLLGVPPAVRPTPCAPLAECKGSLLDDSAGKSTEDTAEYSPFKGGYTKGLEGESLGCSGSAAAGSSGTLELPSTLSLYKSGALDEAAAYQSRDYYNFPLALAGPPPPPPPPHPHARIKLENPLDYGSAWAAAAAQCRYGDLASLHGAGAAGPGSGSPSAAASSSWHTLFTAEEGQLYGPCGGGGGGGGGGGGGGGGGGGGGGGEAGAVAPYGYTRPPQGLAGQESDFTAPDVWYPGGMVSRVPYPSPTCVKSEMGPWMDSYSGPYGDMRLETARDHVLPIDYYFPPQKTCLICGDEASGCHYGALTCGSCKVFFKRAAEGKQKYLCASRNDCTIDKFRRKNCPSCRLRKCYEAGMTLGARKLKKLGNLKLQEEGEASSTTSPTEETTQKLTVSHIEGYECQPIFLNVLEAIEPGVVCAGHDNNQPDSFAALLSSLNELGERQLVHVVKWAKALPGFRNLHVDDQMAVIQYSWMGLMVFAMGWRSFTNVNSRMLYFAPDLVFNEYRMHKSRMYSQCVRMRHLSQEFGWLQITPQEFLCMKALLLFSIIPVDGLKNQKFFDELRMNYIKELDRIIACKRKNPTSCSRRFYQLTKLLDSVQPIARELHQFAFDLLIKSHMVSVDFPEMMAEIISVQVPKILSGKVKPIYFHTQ
Assay: PSA (6.1 kb)-luciferase reporter assay in LNCaP cells, R1881-induced AR transcriptional activity
Format: cell-based
Conditions: LNCaP cells transfected with PSA (6.1 kb)-luciferase; 1 h pre-treatment, R1881 1 nM, 48 h; various concentrations
Protocol: R1881 (a synthetic androgen) is employed since it is stable and avoids problems associated with the labile physiological ligand dihydrotestosterone (DHT).
LNCaP (2.4×10^4 cell/well) cells were seeded on 24-well plates overnight before transfection with PSA (6.1 kb)-luciferase plasmid (0.25 ug/well) in serum-free, red phenol-free media. The next day, cells were pre-treated with compounds of the invention for 1 hour before the addition of synthetic androgen, R1881 (1 nM) to transactivate androgen receptor (AR). After 48 h of incubation with R1881, the cells were harvested, and relative luciferase activity was determined as a read-out for androgen receptor (AR) transcriptional activity relative to a control. Test compounds were added to the cells at various concentrations and activity for each treatment was normalized to the predicted maximal activity induction (in the absence of test compounds, vehicle only). Transfection experiments were performed using triplicate wells.

Row | SMILES | luciferase activity relative to the control (read-out for AR transcriptional activity)
1 | CCC(=O)N[C@@H](CCC(Cl)(Cl)Cl)C(=O)N1C(=O)C=C(OC)[C@@H]1CCC(Cl)(Cl)Cl [Compound 1-1a] | decrease in luciferase activity relative to the control
2 | CCC(=O)N[C@@H](CCC(Cl)(Cl)Cl)C(=O)N1C(=O)C=C(OC)[C@H]1CCC(Cl)(Cl)Cl [Compound 1-1b] | decrease in luciferase activity relative to the control
3 | CCC(=O)N[C@H](CCC(Cl)(Cl)Cl)C(=O)N1C(=O)C=C(OC)[C@@H]1CCC(Cl)(Cl)Cl [Compound 1-1c] | decrease in luciferase activity relative to the control
4 | CCC(=O)N[C@H](CCC(Cl)(Cl)Cl)C(=O)N1C(=O)C=C(OC)[C@H]1CCC(Cl)(Cl)Cl [Compound 1-1d] | decrease in luciferase activity relative to the control
5 | C#CCCC(=O)N[C@H](CCC(Cl)(Cl)Cl)C(=O)N1C(=O)C=C(OC)[C@@H]1CCC(Cl)(Cl)Cl [Compound 1-2c] | decrease in luciferase activity relative to the control
6 | C#CCCC(=O)N[C@H](CCC(Cl)(Cl)Cl)C(=O)N1C(=O)C=C(OC)[C@H]1CCC(Cl)(Cl)Cl [Compound 1-2d] | decrease in luciferase activity relative to the control
7 | COC1=CC(=O)N(C(=O)[C@H](N)CCC(Cl)(Cl)Cl)[C@H]1CCC(Cl)(Cl)Cl [Compound 1-4c] | decrease in luciferase activity relative to the control
8 | COC1=CC(=O)N(C(=O)[C@H](N)CCC(Cl)(Cl)Cl)[C@@H]1CCC(Cl)(Cl)Cl [Compound 1-4d] | decrease in luciferase activity relative to the control
9 | CCS(=O)(=O)N[C@H](CCC(Cl)(Cl)Cl)C(=O)N1C(=O)C=C(OC)[C@H]1CCC(Cl)(Cl)Cl [Compound 1-6d] | decrease in luciferase activity relative to the control
10 | CCC(=O)N[C@H](CCC(Cl)(Cl)Cl)C(=O)N1C(=O)C=C(OC)[C@@H]1CC(C)C [Compound 1-7c] | decrease in luciferase activity relative to the control
11 | CCC(=O)N[C@H](CCC(Cl)(Cl)Cl)C(=O)N1C(=O)C=C(OC)[C@H]1CC(C)C [Compound 1-7d] | decrease in luciferase activity relative to the control
12 | CCC(=O)N[C@H](CC(C)C)C(=O)N1C(=O)C=C(OC)[C@@H]1CCC(Cl)(Cl)Cl [Compound 1-8c] | decrease in luciferase activity relative to the control
13 | CCC(=O)N[C@H](CC(C)C)C(=O)N1C(=O)C=C(OC)[C@H]1CCC(Cl)(Cl)Cl [Compound 1-8d] | slight increase in luciferase activity relative to the control
14 | C#CCCC(=O)N[C@H](CCC(Cl)(Cl)Cl)C(=O)N1C(=O)C=C(OC)[C@@H]1CC(C)C [Compound 1-9c] | decrease in luciferase activity relative to the control
